Earlier results, collected in patent publication US9409968B2, “Toll-like receptor-based biosensors” (University of Massachusetts, priority 2009, dated 2016).

Test system: lupus-prone mice
Details: administered to lupus-prone mice

Substance: 5′-TGCTCCTGGAGGGGTTGT-3′ (listed as DNA, chemistry not given here) [IRS 954]
- autoantibody production: reduction of autoantibody production
- disease symptoms: amelioration of disease symptoms
